Measurements: US5919769A, “Fucose derivatives, drugs containing the same as active ingredient, and intermediates for producing the same” (Kanebo, Ltd, priority 1995, dated 1999)
Structures can show the parent of a compound that is named as a salt.

Legend:
P-selectin = assay: Inhibitory test on the binding of P-selectin to sialyl Le^X (selectin-IgG chimera); conditions: inhibition of P-selectin IgG chimera binding to sialyl Le^X-pentaceramide
Description: Inhibitory test on the binding of P-selectin to sialyl Le^X :
(§1) The experiment was carried out according to the method using selectin-IgG chimera, which was reported by Foxall, C. et al. (J. Cell Biol., 117, 895-902 (1992)).
(§2) Sialyl Le^X -pentaceramide was dissolved in 50% methanol in distilled water, and the solution was put into a 96-well plate in an amount of 100 pmol/well. The plate was allowed to stand at room temperature overnight, and the solvent therein was evaporated. The plate was washed with distilled water, and subjected to blocking with 50 mM imidazole buffer (pH 7.2) containing 5% BSA (bovine serum albumin) and 1 mM calcium chloride at room temperature for one hour.
(§3) Separately, to 500-fold diluted solution of each biotinylated anti-human IgG Fc and streptavidin-alkaline phosphatase conjugate with a 50 mM imidazole buffer (pH 7.2) containing 1% BSA and 1 mM calcium chloride, P-selectin IgG chimera was added to give a final concentration of 40 μg/ml, and the mixture was incubated at room temperature for 30 minutes to give the complex solution.
(§4) A test compound was dissolved in DMSO (except that the test compound h was dissolved in distilled water) to give 10 mM aqueous solution thereof, which was serially diluted with 50 mM imidazole buffer (pH 7.2) containing 1% BSA and 1 mM calcium chloride to give the solutions in 8 various concentrations (two-fold serial dilution from 20 μM). The test compound solution in each concentration and the above complex solution were mixed in equal volume, and the mixture was incubated at room temperature for 30 minutes to give the reaction solution.
(§5) After the blocking was completed, the blocking solution in the above plate was discarded, and the plate was washed with 50 mM imidazole buffer (pH 7.2), and thereto was added the above reaction solution in an amount of 50 μl/well. The plate was incubated at 37° C. for 45 minutes, and then washed three times with 50 mM imidazole buffer (pH 7.2) and washed three times with distilled water. 1M diethanolamine (pH 9.8) containing 0.01% magnesium chloride and 1 mg/ml p-nitrophenyl phosphate was put into each well in an amount of 50 μl/well, and the plate was allowed to stand for 1 to 2 hours for color development. The absorbance at 405 nm was measured, and the binding rate (%) was calculated by the following equation, based on the absorbance (X) of the wells containing a test compound at various concentrations and the absorbance (A) of the wells containing no test compound.
(§6) IC50 was evaluated by probit method from the binding rate.

L-selectin = assay: Inhibitory test on the binding of L-selectin to sialyl Le^X (selectin-IgG chimera); conditions: inhibition of L-selectin IgG chimera binding to sialyl Le^X-pentaceramide
Description: as §1, §2, §3, §4, §5, §6
Inhibitory test on the binding of L-selectin to sialyl Le^X :
The same procedures of Experiment 1 were repeated except that L-selectin IgG chimera (40 μg/ml) was used instead of P-selectin IgG chimera (40 μg/ml).

| SMILES | IC50 (P-selectin) [nM] | IC50 (L-selectin) [nM] | IC50 (P-selectin; sodium salt) [nM] | IC50 (L-selectin; sodium salt) [nM] |
| --- | --- | --- | --- | --- |
| CCCCCCCCCCCCCCC(CCCCCCCCCCCCCC)C(=O)N[C@H](CS[C@@H]1O[C@@H](C)[C@@H](O)[C@@H](O)[C@@H]1O)C(=O)N[C@@H](CCC(=O)O)C(=O)NC [compound s, [N-(2-tetradecylhexadecanoyl)-S-(α-L-fucopyranosyl)-D-cysteinyl]-L-glutamic acid 1-methylamide] | 100 | 100 |  |  |
| CCCCCCCCCCCCCCC(CCCCCCCCCCCCCC)C(=O)N[C@H](CO[C@@H]1O[C@H]([C@H](C)O)[C@@H](O)[C@@H]1O)C(=O)N[C@H](CCC(=O)O)C(=O)NC [compound d, [N-(2-tetradecylhexadecanoyl)-O-(α-L-fucofuranosyl)-D-seryl]-D-glutamic acid 1-methylamide] | 200 | 500 |  |  |
| CCCCCCCCCCCCCCC(CCCCCCCCCCCCCC)C(=O)N[C@@H](CS[C@@H]1O[C@@H](C)[C@@H](O)[C@@H](O)[C@@H]1O)C(=O)N[C@H](CCC(=O)O)C(=O)NC [compound r, [N-(2-tetradecylhexadecanoyl)-S-(α-L-fucopyranosyl)-L-cysteinyl]-D-glutamic acid 1-methylamide] | 200 | 700 |  |  |
| CC(=O)N[C@H]1[C@H]([C@H](O)[C@H](O)CO)O[C@@](O[C@H]2[C@@H](O)[C@@H](CO)O[C@@H](O[C@@H]([C@H](O[C@@H]3O[C@@H](C)[C@@H](O)[C@@H](O)[C@@H]3O)[C@H](C=O)NC(C)=O)[C@H](O)CO)[C@@H]2O)(C(=O)O)C[C@@H]1O [compound X, Sialyl Le^X, reference compound] | > 500000 | > 500000 |  |  |
| CCCCCCCCCCCCCCC(CCCCCCCCCCCCCC)C(=O)N[C@@H](CO[C@@H]1O[C@H]([C@H](C)O)[C@@H](O)[C@@H]1O)C(=O)N[C@@H](CCC(=O)O)C(=O)NC [compound a, [N-(2-tetradecylhexadecanoyl)-O-(α-L-fucofuranosyl)-L-seryl]-L-glutamic acid 1-methylamide] | 1300 | 2200 |  |  |
| CCCCCCCCCCCCCCC(CCCCCCCCCCCCCC)C(=O)N[C@H](CS[C@@H]1O[C@@H](C)[C@@H](O)[C@@H](O)[C@@H]1O)C(=O)N[C@H](CCC(=O)O)C(=O)NC [compound t, [N-(2-tetradecylhexadecanoyl)-S-(α-L-fucopyranosyl)-D-cysteinyl]-D-glutamic acid 1-methylamide] | 300 | 600 |  |  |
| CCCCCCCCCCCCCCC(CCCCCCCCCCCCCC)C(=O)N[C@@H](CO[C@@H]1O[C@H]([C@H](C)O)[C@@H](O)[C@@H]1O)C(=O)N[C@H](CCC(=O)O)C(=O)Nc1ccccc1 [compound g, [N-(2-tetradecylhexadecanoyl)-O-(α-L-fucofuranosyl)-L-seryl]-D-glutamic acid 1-anilide] | 100 | 1700 |  |  |
| CCCCCCCCCCCCCCC(CCCCCCCCCCCCCC)C(=O)N[C@@H](CO[C@@H]1O[C@H]([C@H](C)O)[C@@H](O)[C@@H]1O)C(=O)NCCCC(=O)O [compound e, 4-N-[N-(2-tetradecylhexadecanoyl)-O-(α-L-fucofuranosyl)-L-seryl]aminobutyric acid] | 500 | 1800 |  |  |
| CCCCCCCCCCCCCCC(CCCCCCCCCCCCCC)C(=O)N[C@@H](CO[C@@H]1O[C@H]([C@H](C)O)[C@@H](O)[C@@H]1O)C(=O)NCCCCC(=O)O [compound f, 5-N-[N-(2-tetradecylhexadecanoyl)-O-(α-L-fucofuranosyl)-L-seryl]aminovaleric acid] | 1200 | 2500 |  |  |
| CCCCCCCCCCCCCCC(CCCCCCCCCCCCCC)C(=O)N[C@@H](CS[C@H]1O[C@@H](C)[C@@H](O)[C@@H](O)[C@@H]1O)C(=O)N[C@H](CCC(=O)O)C(=O)NC [compound u, [N-(2-tetradecylhexadecanoyl)-S-(β-L-fucopyranosyl)-L-cysteinyl]-D-glutamic acid 1-methylamide] | 1000 | 1000 |  |  |
| CCCCCCCCCCCCCCC(CCCCCCCCCCCCCC)C(=O)N[C@@H](CS[C@@H]1O[C@@H](C)[C@@H](O)[C@@H](O)[C@@H]1O)C(=O)N[C@@H](CCC(=O)O)C(=O)NC [compound q, [N-(2-tetradecylhexadecanoyl)-S-(α-L-fucopyranosyl)-L-cysteinyl]-L-glutamic acid 1-methylamide] | 100 | 200 |  |  |

Second part, the molecule after the results:

| IC50 (P-selectin) [nM] | IC50 (L-selectin) [nM] | IC50 (P-selectin; sodium salt) [nM] | IC50 (L-selectin; sodium salt) [nM] | SMILES |
| --- | --- | --- | --- | --- |
| 600 | 800 |  |  | CCCCCCCCCCCCCCC(CCCCCCCCCCCCCC)C(=O)N[C@@H](CO[C@H]1O[C@@H](C)[C@@H](O)[C@@H](O)[C@@H]1O)C(=O)N[C@@H](CCC(=O)O)C(=O)NC [compound m, [N-(2-tetradecylhexadecanoyl)-O-(β-L-fucopyranosyl)-L-seryl]-L-glutamic acid 1-methylamide] |
| 300 | 800 |  |  | CCCCCCCCCCCCCCC(CCCCCCCCCCCCCC)C(=O)N[C@@H](CO[C@H]1O[C@@H](C)[C@@H](O)[C@@H](O)[C@@H]1O)C(=O)N[C@H](CCC(=O)O)C(=O)NC [compound n, [N-(2-tetradecylhexadecanoyl)-O-(β-L-fucopyranosyl)-L-seryl]-D-glutamic acid 1-methylamide] |
| 500 | 6000 |  |  | CCCCCCCCCCCCCCC(CCCCCCCCCCCCCC)C(=O)N[C@@H](CO[C@@H]1O[C@@H](C)[C@@H](O)[C@@H](O)[C@@H]1O)C(=O)N[C@H](CCC(=O)O)C(=O)NC [compound j, [N-(2-tetradecylhexadecanoyl)-O-(α-L-fucopyranosyl)-L-seryl]-D-glutamic acid 1-methylamide] |
| 2100 | 18000 |  |  | CCCCCCCCCCCCCCC(CCCCCCCCCCCCCC)C(=O)N[C@H](CO[C@@H]1O[C@@H](C)[C@@H](O)[C@@H](O)[C@@H]1O)C(=O)N[C@H](CCC(=O)O)C(=O)NC [compound l, [N-(2-tetradecylhexadecanoyl)-O-(α-L-fucopyranosyl)-D-seryl]-D-glutamic acid 1-methylamide] |
| 1900 | 39000 |  |  | CCCCCCCCCCCCCCC(CCCCCCCCCCCCCC)C(=O)N[C@@H](CO[C@@H]1O[C@@H](C)[C@@H](O)[C@@H](O)[C@@H]1O)C(=O)N[C@@H](CCC(=O)O)C(=O)NC [compound i, [N-(2-tetradecylhexadecanoyl)-O-(α-L-fucopyranosyl)-L-seryl]-L-glutamic acid 1-methylamide] |
| 1000 | 1500 |  |  | CCCCCCCCCCCCCCC(CCCCCCCCCCCCCC)C(=O)N[C@@H](CO[C@@H]1O[C@H]([C@H](C)O)[C@@H](O)[C@@H]1O)C(=O)N[C@H](CCC(=O)O)C(=O)NC [compound b, [N-(2-tetradecylhexadecanoyl)-O-(α-L-fucofuranosyl)-L-seryl]-D-glutamic acid 1-methylamide] |
| 300 | 700 |  |  | CCCCCCCCCCCCCCC(CCCCCCCCCCCCCC)C(=O)N[C@H](CO[C@H]1O[C@@H](C)[C@@H](O)[C@@H](O)[C@@H]1O)C(=O)N[C@H](CCC(=O)O)C(=O)NC [compound p, [N-(2-tetradecylhexadecanoyl)-O-(β-L-fucopyranosyl)-D-seryl]-D-glutamic acid 1-methylamide] |
|  |  | 1200 | 300 | CCCCCCCCCCCCCCC(CCCCCCCCCCCCCC)C(=O)N[C@@H](CO[C@@H]1O[C@H]([C@H](C)O)[C@@H](O)[C@@H]1O)C(=O)N[C@H](CCC(=O)O)C(=O)NC [compound h, [N-(2-tetradecylhexadecanoyl)-O-(α-L-fucofuranosyl)-L-seryl]-D-glutamic acid 1-methylamide sodium salt] |
| 300 | 1600 |  |  | CCCCCCCCCCCCCCC(CCCCCCCCCCCCCC)C(=O)N[C@H](CO[C@H]1O[C@@H](C)[C@@H](O)[C@@H](O)[C@@H]1O)C(=O)N[C@@H](CCC(=O)O)C(=O)NC [compound o, [N-(2-tetradecylhexadecanoyl)-O-(β-L-fucopyranosyl)-D-seryl]-L-glutamic acid 1-methylamide] |
